# In patent US20150297593A1 (priority 2012, published 2015):
# Legend:
# [1] = system: influenza A virus (Mem71, H3N1); design: species or system BALB/c mice; conditions: mouse, in vivo
# [2] = system: influenza A virus (Mem71, H3N1); format: in vivo, Rag2−/− mice
# [3] = system: nuocytes (CD45+Lin−ST2+cKit+Sca1+); format: in vivo, BALB/c mice
# [4] = system: mouse lung nuocytes (Lin−ST2+); format: cell-based; conditions: IL-2 50 ng/ml plus rIL-33 100 ng/ml, imatinib 0.1-1 μM
# [5] = system: human nuocytes isolated from the BAL fluid of patients with asthma; format: cell-based; conditions: imatinib 1 μM; rIL-2 50 ng/ml plus rIL-33 100 ng/ml for 24 hrs
# RSV = test: RSV-induced AHR model; format: in vivo, BALB/c mice; conditions: 100 mg/kg i.p. on day 1 post infection
# [6] = system: recombinant IL-33 (rIL-33)-induced AHR; conditions: mouse, in vivo
# [7] = system: influenza A virus (Mem71, H3N1); conditions: 100 mg/kg i.p. on day 1; sera on day 11
# [8] = system: nuocytes (CD45+Lin−ST2+ckit+Sca1+); test: FACS count of BAL and lung nuocytes after rIL-33 in Rag2−/− mice; conditions: imatinib 100 mg/kg i.p. on day 1, day 5
# Experimental: In FIGS. 5C and 5D, BAL cells (FIG. 5C) or lung cells (FIG. 5D) were taken from 8 wk old Rag2^−/− mice (n=5 per group) on day 5, and further stimulated with PMA+ionomycin for 5 hr. The percentage of lung CD45^+Lin^−ST2^+ckit^+Sca1^+ cells was assessed by FACS. Third panels show dot plots for Lin^−ST2^+ cells in lung leukocytes (CD45^+). After gating on the Lin^−ST2^+cKit^+ cells, the cells were analyzed for c-Kit and Sca1 expression (fourth panels).
# Whole lungs were flushed with PBS injected into the right ventricle, removed, and rinsed in PBS. […] The digest was passed multiple times through an 18-gauge needle and allowed to incubate for another 30 min before filtered. RBCs were removed by 4-min incubation in lysis buffer (Sigma-Aldrich, St. Louis, Mo.) at room temperature. Single-cell suspensions of spleen lymphocytes were obtained by mechanical disruption and RBC lysis.
# Cells were preincubated with anti-Fcy blocking mAb (2.4G2) and washed before staining. Cells were stained with anti-mouse PE-Texas red-conjugated CD45, FITC-conjugated CD3, CD19, CD11b, CD11c, CD49b, F4/80, Fc□R1; APC conjugated cKit,; PerCP conjugated cKit, Alexa Fluor 700-conjugated Sca1; PE conjugated biotinylated anti-ST2 antibodies. […] Cells were analyzed on a BDCanto flow cytometer (BD Biosciences, Franklin Lakes, N.J.) using FlowJo 8.3.3 software (Tree Star, Inc., Ashland, Oreg.).
# [9] = 100 mg/kg on day 1, day 5 post-infection
# [10] = after imatinib treatment, data not shown
smiles,measurement,setting,value
Cc1ccc(NC(=O)c2ccc(CN3CCN(C)CC3)cc2)cc1Nc1nccc(-c2cccnc2)n1 [imatinib],inflammation (BAL fluid cells),[1],abolished
same,lung inflammation (BAL fluid cells),[1],abolished
same,H3N1 infection-induced inflammation in Rag2−/− mice,"[2]; 100 mg/kg i.p. on day 1, […]",inhibits
same,influenza-induced AHR in Rag2−/− mice,"[2]; mouse, in vivo",blocked
same,total number of NKT cells in the lung,"[3]; 100 mg/kg on day 1, day 5",had no effect
same,total number of conventional T cells in the lung,"[3]; 100 mg/kg on day 1, day 5",had no effect
same,frequency and absolute number of nuocytes in BAL fluid,[3]; [9],reduced
same,frequency and absolute number of nuocytes in the lungs,[3]; [9],reduced
same,frequency of NKT cells in BAL fluid,[3]; [10],slightly reduced
same,total number of BAL fluid cells,[3]; [10],slightly reduced
same,secretion of IL-5 by nuocytes (ELISA),[4],reduced
same,secretion of IL-13 by nuocytes (ELISA),[4],reduced
same,proliferation of mouse lung nuocytes (3H-thymidine incorporation),[4]; dose-dependent,blocked
same,production of IL-13 by human nuocytes,[5],blocked
same,development of RSV-induced inflammation,RSV,blocked
same,development of RSV-induced AHR,RSV; assessed 6 days post-infection,blocked
same,AHR induced with recombinant IL-33,[6],could block
same,anti-influenza IgG production,[7],no significant reduction
same,number of BAL and lung nuocytes (airway nuocytophilia induced with rIL-33),[8],reduced
Cc1ccc(NC(=O)c2ccc(CN3CCN(C)CC3)cc2)cc1Nc1nc(-c2cccnc2)cs1 [masitinib],H3N1-induced AHR,[1],abolished
same,H3N1-induced inflammation,[1],abolished
